Source: patent EP4603105A1, “PHARMACEUTICAL COMPOSITION CONTAINING CYCLIC COMPOUND HAVING SELECTIVE KRAS INHIBITORY EFFECT AGAINST HRAS AND NRAS” (CHUGAI SEIYAKU KABUSHIKI KAISHA, priority 2022, dated 2024)
Where a SMILES comes first, the peptide text is derived from it. Bridges are numbered along the chain shown (N, C = ends). [ ]: non-standard residue; d: D form. The star is where a group is joined. hPhe(3-Cl-4-CF3) = N[C@@H](CCc1ccc(C(F)(F)F)c(Cl)c1)C(=O)O; NPrPhe(4-CF3) = CCCN[C@@H](Cc1ccc(C(F)(F)F)cc1)C(=O)O; NMeGly(cPent) = CN[C@H](C(=O)O)C1CCCC1; Gly(cBu) = N[C@H](C(=O)O)C1CCC1; NMeD = CN[C@@H](CC(=O)O)C(=O)O; NMeL = CN[C@@H](CC(C)C)C(=O)O; Morpholide = C1CN(*)CCO1; Ac5c = NC1(C(=O)O)CCCC1; Ac4c = NC1(C(=O)O)CCC1; NEtG = CCNCC(=O)O; Sar = CNCC(=O)O

Tests used:
[1] = molecular target: GDP-bound NRAS wild-type protein (Homo sapiens, UniProt P01111); test: Binding to NRAS by surface plasmon resonance (SPR), KD and KD ratio to KRAS
In short: (§1)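 SPR, 30°C: Avi-biotin RAS·GDP captured via Biotin CAPture (~100–300 RU); running buffer HBS pH 7.4, 1 mM DTT, 10 mM MgCl2, 0.01% Tween 20, 10 µM GDP, 4% DMSO. Single-cycle kinetics, 100 µL/min, 75 s injections; 1:1 model → KD.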

[2] = molecular target: HRAS wild-type protein (Homo sapiens, UniProt P01112); test: Binding to HRAS by surface plasmon resonance (SPR), KD and KD ratio to KRAS
In short: as §1

[3] = tested on: human lung cancer strain NCI-H441; format: cell-based
In short: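 Proliferation was scored by […] measured after the reagent was added to cultures kept at 37°C in 5% carbon dioxide.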

[4] = ratio of KD for GDP-bound NRAS wild-type protein to KD for KRAS
[5] = ratio of KD for HRAS wild-type protein to KD for KRAS
[6] = ratio of KD value for GDP-bound NRAS wild-type protein to KD value for KRAS (SPR)
[7] = ratio of KD value for HRAS wild-type protein to KD value for KRAS (SPR)
[8] = ratio of the KD value with respect to GDP-bound NRAS wild-type protein to the KD value with respect to KRAS
[9] = ratio of the KD value with respect to HRAS wild-type protein to the KD value with respect to KRAS

HRAS wild-type protein, sequence (P01112 whole entry): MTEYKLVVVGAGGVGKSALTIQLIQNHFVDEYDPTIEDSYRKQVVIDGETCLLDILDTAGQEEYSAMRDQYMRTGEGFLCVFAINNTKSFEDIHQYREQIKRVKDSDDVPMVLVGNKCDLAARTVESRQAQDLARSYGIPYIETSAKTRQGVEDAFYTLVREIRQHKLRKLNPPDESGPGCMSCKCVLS
GDP-bound NRAS wild-type protein, sequence (P01111 whole entry): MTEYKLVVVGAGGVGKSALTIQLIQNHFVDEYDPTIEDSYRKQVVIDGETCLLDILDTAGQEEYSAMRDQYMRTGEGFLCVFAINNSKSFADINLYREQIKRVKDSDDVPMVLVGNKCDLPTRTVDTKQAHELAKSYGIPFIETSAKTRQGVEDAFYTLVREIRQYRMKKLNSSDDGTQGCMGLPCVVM

Row | IC50 [3] [µM] | Compound | NRAS /KRAS [1, 4] | HRAS /KRAS [2, 5] | NRAS /KRAS [1, 6] | HRAS /KRAS [2, 7] | NRAS /KRAS [1, 8] | HRAS /KRAS [2, 9]
1 | 0.69 | CCO[C@@H]1C[C@H]2C(=O)NC3(CC=CC3)C(=O)N(C)[C@@H](C3CCCC3)C(=O)N(CC)[C@H](C(=O)N3CCOCC3)CC(=O)N(C)[C@@H](CC(C)C)C(=O)N[C@@H]([C@@H](C)CC)C(=O)N(C)CC(=O)N(C)[C@H]3CCCCCN(C3=O)[C@@H](Cc3ccc(C(F)(F)F)cc3)C(=O)N(C)CC(=O)N[C@@H](CCc3cc(F)c(C(F)(F)F)c(F)c3)C(=O)N2C1 [PP0956] | A (a compound having 10 or more and less than 20 is denoted as A) | A (a compound having 10 or more and less than 20 is denoted as A) | – | – | – | –
2 | 0.0025 | CCC[C@H]1C(=O)N[C@@H]([C@@H](C)CC)C(=O)N(C)CC(=O)N(C)[C@H]2C/C=C\CCN(C2=O)[C@@H](Cc2ccc(C(F)(F)F)cc2)C(=O)N(C)CC(=O)N[C@@H](CCc2cc(F)c(C(F)(F)F)c(F)c2)C(=O)N2C[C@@H](C)C[C@H]2C(=O)NC2(CC(C)(C)C2)C(=O)N(C)[C@@H](C2CCCC2)C(=O)N(C)[C@H](C(=O)N(C)C)CC(=O)N1C [PP1683] | – | – | A (a compound having 10 or more and less than 20 is denoted as A) | A (a compound having 10 or more and less than 20 is denoted as A) | – | –
3 | 0.0257 | CCO[C@@H]1C[C@H]2C(=O)NC3(CC(C)(C)C3)C(=O)N(C)[C@@H](C3CCCCC3)C(=O)N(C)[C@H](C(=O)N(C)C)CC(=O)N(C)[C@@H](CC)C(=O)N[C@@H]([C@@H](C)CC)C(=O)N(C)CC(=O)N(C)[C@H]3C/C=C\CCN(C3=O)[C@@H](Cc3ccc(C(F)(F)F)cc3)C(=O)N(C)CC(=O)N[C@@H](CCc3cc(F)c(C(F)(F)F)c(F)c3)C(=O)N2C1 [PP1942] | – | – | – | – | AA (a compound having 20 or more is denoted as AA) | A (a compound having 10 or more and less than 20 is denoted as A)
4 | 0.0361 | CCO[C@@H]1C[C@H]2C(=O)NC3(CC(C)(C)C3)C(=O)N(C)[C@@H](C(CC)CC)C(=O)N(C)[C@H](C(=O)N(C)C)CC(=O)N(C)[C@@H](CC(C)C)C(=O)N[C@@H]([C@@H](C)CC)C(=O)N(C)CC(=O)N(C)[C@H]3C/C=C\CCN(C3=O)[C@@H](Cc3ccc(C)cc3)C(=O)N(C)CC(=O)N[C@@H](CCc3ccc(Cl)c(Cl)c3)C(=O)N2C1 [PP2185] | – | – | – | – | AA (a compound having 20 or more is denoted as AA) | A (a compound having 10 or more and less than 20 is denoted as A)
5 | 0.0024 | CC[C@H](C)[C@@H]1NC(=O)[C@H](CC(C)C)N(C)C(=O)C[C@@H](C(=O)N(C)C)N(C)C(=O)[C@H](C2CCCC2)N(C)C(=O)C2(CCCC2)NC(=O)[C@@H]2CC(F)(F)CN2C(=O)[C@H](CCc2cc(F)c(C(F)(F)F)c(F)c2)NC(=O)CN(C)C(=O)[C@H](Cc2ccc(C(F)(F)F)cc2)N2CCCC[C@@H](C2=O)N(C)C(=O)CN(C)C1=O [PP0576] | – | – | – | – | C (A compound having a KD ratio of 0.1 or more and less than 3 is denoted as C) | B (a compound having 3 or more and less than 10 is denoted as B)
6 | 0.0068 | CC[C@H](C)[C@@H]1NC(=O)[C@H](CC2CC2)N(C)C(=O)C[C@@H](C(=O)N(CC)CC)N(C)C(=O)[C@H](C2CCCC2)N(C)C(=O)C2(CC(C)(C)C2)NC(=O)[C@@H]2C[C@@H](F)CN2C(=O)[C@H](CCc2cc(F)c(C(F)(F)F)c(F)c2)NC(=O)CN(C)C(=O)[C@H](Cc2ccc(C(F)(F)F)cc2)N2CC/C=C\C[C@@H](C2=O)N(C)C(=O)CN(C)C1=O [PP1571] | – | – | A (a compound having 10 or more and less than 20 is denoted as A) | A (a compound having 10 or more and less than 20 is denoted as A) | – | –
7 | 0.115 | CCCN1C(=O)CN(C)C(=O)CN(CC)C(=O)[C@H]([C@@H](C)CC)NC(=O)[C@H](CC(C)C)N(C)C(=O)C[C@@H](C(=O)N(C)C)NC(=O)[C@H](C2CCCC2)N(C)C(=O)C2(CCC2)NC(=O)[C@@H]2CCCN2C(=O)[C@H](CCc2ccc(C(F)(F)F)c(Cl)c2)NC(=O)CN(C)C(=O)[C@@H]1Cc1ccc(C(F)(F)F)cc1 [PP0368] ([NMeL]I[NEtG][Sar][NPrPhe(4-CF3)][Sar][hPhe(3-Cl-4-CF3)]P[Ac4c][NMeGly(cPent)]D-NMe2; lactam N-11) | B (a compound having 3 or more and less than 10 is denoted as B) | B (a compound having 3 or more and less than 10 is denoted as B) | – | – | – | –
8 | 0.0363 | CCCN1C(=O)CN(C)C(=O)CN(CC)C(=O)[C@H](C2CCC2)NC(=O)[C@H](CC(C)C)N(C)C(=O)C[C@@H](C(=O)N2CCOCC2)N(C)C(=O)[C@H](C2CCCC2)N(C)C(=O)C2(CCCC2)NC(=O)[C@@H]2CCCN2C(=O)[C@H](CCc2ccc(C(F)(F)F)c(Cl)c2)NC(=O)CN(C)C(=O)[C@@H]1Cc1ccc(C(F)(F)F)cc1 [PP0292] ([NMeL][Gly(cBu)][NEtG][Sar][NPrPhe(4-CF3)][Sar][hPhe(3-Cl-4-CF3)]P[Ac5c][NMeGly(cPent)][NMeD]-Morpholide; lactam N-11) | B (a compound having 3 or more and less than 10 is denoted as B) | C (A compound having a KD ratio of 0.1 or more and less than 3 is denoted as C) | – | – | – | –
9 | 0.008 | CCCN(C)C(=O)[C@@H]1CC(=O)N(C)[C@@H](CC2CCC2)C(=O)N[C@@H]([C@@H](C)CC)C(=O)N(C)CC(=O)N(C)[C@H]2C/C=C\CCN(C2=O)[C@@H](Cc2ccc(C(F)(F)F)cc2)C(=O)N(C)CC(=O)N[C@@H](CCc2cc(F)c(C(F)(F)F)c(F)c2)C(=O)N2C[C@H](OCC)C[C@H]2C(=O)NC2(CCC2)C(=O)N(C)[C@@H](C2CCCC2)C(=O)N1C [PP1705] | – | – | AA (a compound having 20 or more is denoted as AA) | A (a compound having 10 or more and less than 20 is denoted as A) | – | –
10 | 0.0025 | CCC[C@H]1C(=O)N[C@@H]([C@@H](C)CC)C(=O)N(C)CC(=O)N(C)[C@H]2C/C=C\CCN(C2=O)[C@@H](Cc2ccc(C(F)(F)F)cc2)C(=O)N(C)CC(=O)N[C@@H](CCc2ccc(C(F)(F)F)c(OC)c2)C(=O)N2C[C@H](OCC)C[C@H]2C(=O)N(C)C2(CCC2)C(=O)N(C)[C@@H](C2CCCC2)C(=O)N(C)[C@H](C(=O)N2CCCC2)CC(=O)N1C [PP3105] | AA (a compound having 20 or more is denoted as AA) | A (a compound having 10 or more and less than 20 is denoted as A) | – | – | – | –
11 | 0.0169 | CCO[C@@H]1C[C@H]2C(=O)NC3(CCC3)C(=O)N(C)[C@@H](C3CCCC3)C(=O)N(C)[C@H](C(=O)N(C)CC)CC(=O)N(C)[C@@H](CC3CC3)C(=O)N[C@@H]([C@@H](C)CC)C(=O)N(C)CC(=O)N(C)[C@H]3C/C=C\CCN(C3=O)[C@@H](Cc3ccc(C)cc3)C(=O)N(C)CC(=O)N[C@@H](CCc3ccc(C(F)(F)F)c(OC)c3)C(=O)N2C1 [PP1879] | – | – | A (a compound having 10 or more and less than 20 is denoted as A) | B (a compound having 3 or more and less than 10 is denoted as B) | – | –
12 | 0.0235 | CCC[C@H]1C(=O)N[C@@H]([C@@H](C)CC)C(=O)N[C@@H](C)C(=O)N(C)[C@H]2C/C=C\CCN(C2=O)[C@@H](Cc2ccc(C(F)(F)F)cc2)C(=O)N(C)CC(=O)N[C@@H](CCc2cc(F)c(C(F)(F)F)c(F)c2)C(=O)N2C[C@H](OCC)C[C@H]2C(=O)NC2(CC(C)(C)C2)C(=O)N(C)[C@@H](C2CCCC2)C(=O)N(C)[C@H](C(=O)N(C)C)CC(=O)N1C [PP1927] | – | – | – | – | A (a compound having 10 or more and less than 20 is denoted as A) | A (a compound having 10 or more and less than 20 is denoted as A)
13 | 0.0271 | CCC(CC)[C@H]1C(=O)N(C)[C@H](C(=O)N(C)C)CC(=O)N(C)[C@@H](COC)C(=O)N[C@@H]([C@@H](C)CC)C(=O)N(C)CC(=O)N(C)[C@H]2C/C=C\CCN(C2=O)[C@@H](Cc2ccc(C(F)(F)F)cc2)C(=O)N(C)CC(=O)N[C@@H](CCc2ccc(C(F)(F)F)c(Cl)c2)C(=O)N2CC3(CC3)C[C@H]2C(=O)NC2(CC(C)(C)C2)C(=O)N1C [PP2965] | AA (a compound having 20 or more is denoted as AA) | A (a compound having 10 or more and less than 20 is denoted as A) | – | – | – | –
14 | 0.0141 | CCO[C@@H]1C[C@H]2C(=O)NC3(CC(C)(C)C3)C(=O)N(C)[C@@H](C3CCCC3)C(=O)N(C)[C@H](C(=O)N(C)CC)CC(=O)N(C)[C@@H](CC)C(=O)N[C@@H]([C@@H](C)CC)C(=O)N(C)CC(=O)N(C)[C@H]3C/C=C\CCN(C3=O)[C@@H](Cc3ccc(C(F)(F)F)cc3)C(=O)N(C)CC(=O)N[C@@H](CCc3ccc(Cl)c(Cl)c3)C(=O)N2C1 [PP2822] | A (a compound having 10 or more and less than 20 is denoted as A) | A (a compound having 10 or more and less than 20 is denoted as A) | – | – | – | –
15 | 0.0239 | CCCN1C(=O)CN(C)C(=O)CN(C)C(=O)[C@H]([C@@H](C)CC)NC(=O)[C@H](CC(C)C)N(C)C(=O)C[C@@H](C(=O)N2CCOCC2)NC(=O)[C@H](C2CCCC2)N(C)C(=O)C2(CCCC2)NC(=O)[C@@H]2CCCN2C(=O)[C@H](CCc2ccc(C(F)(F)F)c(Cl)c2)NC(=O)CN(C)C(=O)[C@@H]1Cc1ccc(C(F)(F)F)cc1 [PP0146] ([NMeL]I[Sar][Sar][NPrPhe(4-CF3)][Sar][hPhe(3-Cl-4-CF3)]P[Ac5c][NMeGly(cPent)]D-Morpholide; lactam N-11) | B (a compound having 3 or more and less than 10 is denoted as B) | B (a compound having 3 or more and less than 10 is denoted as B) | – | – | – | –
